Test systems include A498 renal; A549 NSCLC; K-562 leukemia; MDA-MB-231 breast; NCI-H23 lung; SF-268 CNS; SK-OV-3 ovarian; SNB-19 CNS; UACC-257 melanoma; NCI-H522 lung.
Holding throughout (assay): DTP human tumour cell line panel, 48 h

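Values below derive from 48-hour exposures of cells grown in 96-well plates, with endpoints linearly interpolated between the two concentrations bracketing the appropriate inhibition level. GI50 is the concentration that inhibits growth by half. TGI: total growth inhibition.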

Broadly, the TGI is the concentration giving total growth inhibition. Low readings indicate more potent growth arrest, high ones less potent growth arrest. On to `COc1ccc(-n2c3c(c4cc(O)ccc42)Cc2ccccc2C3=O)cc1`, for which the TGI with A498 renal, in the test with A549 NSCLC, with K-562 leukemia, in the test with MDA-MB-231 breast, in the test on NCI-H23 lung and in the test with SF-268 CNS was greater than 100 µM each time. For the same molecule, the TGI in the test on SK-OV-3 ovarian is 57 µM; with SNB-19 CNS, greater than 100 µM; in the test on UACC-257 melanoma it was greater than 100 µM.

Turning to `CCOCC(=O)N(C)c1cccc2c3c(n(C)c12)CCCCC3`, the TGI with A498 renal, with A549 NSCLC, in the test on K-562 leukemia, in the test on NCI-H23 lung, in the test with NCI-H522 lung and in the test with SF-268 CNS was greater than 100 µM each time. The TGI in the test on SK-OV-3 ovarian, in the test on SNB-19 CNS and in the test with UACC-257 melanoma was greater than 100 µM in each case.

What is called GI50 is the concentration at which growth is held to half of that of the control. Consider `CC1C(=O)c2cc3c(cc2CCN(C)Cc2c1ccc1c2OCO1)OCO3` (stereo unspecified), for which the GI50 was greater than 75 µg/mL with A498 renal; greater than 75 µg/mL with A549 NSCLC; 24.7 µg/mL in the test on K-562 leukemia; greater than 75 µg/mL in the test with MDA-MB-231 breast; greater than 75 µg/mL in the test with NCI-H23 lung; 34.6 µg/mL in the test on NCI-H522 lung. Moreover, the GI50 was greater than 75 µg/mL in the test with SF-268 CNS, greater than 75 µg/mL with SK-OV-3 ovarian, greater than 75 µg/mL in the test on SNB-19 CNS and 36.1 µg/mL with UACC-257 melanoma. In addition, the TGI with A498 renal, in the test with A549 NSCLC, in the test on K-562 leukemia, in the test with MDA-MB-231 breast, in the test on NCI-H23 lung and in the test with NCI-H522 lung was greater than 75 µg/mL throughout. The TGI in the test with SF-268 CNS, with SK-OV-3 ovarian, in the test on SNB-19 CNS and with UACC-257 melanoma was greater than 75 µg/mL each time.

Regarding `O=C(O)C1CCCCN1C(=O)Cc1c[nH]c2ccccc12` (stereo unspecified), the TGI in the test with A549 NSCLC, in the test on K-562 leukemia, in the test on MDA-MB-231 breast, in the test with NCI-H23 lung, in the test on NCI-H522 lung and with SF-268 CNS was greater than 100 µM throughout. For the same molecule, the concentration for total growth inhibition (TGI) with SK-OV-3 ovarian, with SNB-19 CNS and in the test with UACC-257 melanoma was greater than 100 µM in each case.

`Cc1oc(N)c(S(=O)(=O)c2cc3ccccc3n(O)c2=N)c1C`: the TGI with A498 renal, in the test with A549 NSCLC, with MDA-MB-231 breast, in the test with NCI-H23 lung, in the test on NCI-H522 lung and in the test with SF-268 CNS was greater than 100 µM in each case. Further, the TGI in the test with SK-OV-3 ovarian, with SNB-19 CNS and in the test on UACC-257 melanoma was greater than 100 µM in each case.

For the molecule `CCOC(=O)c1c(-c2cccc(Cl)c2)c(C(=O)OC)c(C)c2sc(C=O)nc12`, the TGI in the test on A549 NSCLC was greater than 100 µM; in the test on K-562 leukemia, 89.8 µM; in the test on MDA-MB-231 breast, 34.6 µM; with NCI-H23 lung it was greater than 100 µM; with NCI-H522 lung, 32.5 µM; with SF-268 CNS, 38.6 µM. The results for the TGI in the test on SK-OV-3 ovarian, with SNB-19 CNS and in the test with UACC-257 melanoma were 92.2 µM, greater than 100 µM and greater than 100 µM, respectively.

Regarding `O=C(/C=C1\N=C(c2ccccc2)N(c2nc3c(Cl)cc(Cl)cc3s2)C1=O)/C=C/c1ccccc1`, the TGI in the test with A498 renal, in the test with A549 NSCLC, with K-562 leukemia, with MDA-MB-231 breast, in the test on NCI-H23 lung and with NCI-H522 lung was greater than 100 µM throughout. Also, the TGI in the test on SF-268 CNS, in the test with SK-OV-3 ovarian, with SNB-19 CNS and with UACC-257 melanoma was greater than 100 µM each time.

For `COC(=O)C1CC23C4=C(CCC41)CCC1CN4CC(C)C(CC(OC(C)=O)C12COC(C)=O)C43O` (stereo unspecified), the TGI in the test on A498 renal, in the test on A549 NSCLC, in the test on K-562 leukemia, in the test with MDA-MB-231 breast, with NCI-H23 lung and in the test on NCI-H522 lung was greater than 100 µM each time. In addition, the TGI in the test on SF-268 CNS, with SK-OV-3 ovarian, with SNB-19 CNS and in the test on UACC-257 melanoma was greater than 100 µM in each case.

As for `C[N+]1(CCC(=O)c2ccccc2)CCC2CCC(C2)C1` (stereo unspecified), the TGI in the test on A498 renal, in the test with A549 NSCLC, in the test on K-562 leukemia, with MDA-MB-231 breast, with NCI-H23 lung and with NCI-H522 lung was greater than 100 µM in each case. The total growth inhibition concentration (TGI) in the test on SF-268 CNS, in the test with SK-OV-3 ovarian, in the test with SNB-19 CNS and in the test with UACC-257 melanoma was greater than 100 µM throughout.

As for `Cc1n[n+]([O-])c(C)cc1[N+](=O)[O-]`, the TGI in the test on A498 renal was 40.6 µM; with A549 NSCLC, 48.1 µM; in the test on MDA-MB-231 breast, 39.8 µM; in the test with NCI-H23 lung, 29.9 µM; with NCI-H522 lung, 25.6 µM; with SF-268 CNS, greater than 100 µM. For the same molecule, the TGI in the test with SK-OV-3 ovarian is greater than 100 µM; in the test with SNB-19 CNS, greater than 100 µM; with UACC-257 melanoma it was 29 µM.

For `COC(=O)c1cc(NC(=O)c2cc(NC(=O)Cc3c[nH]c4ccccc34)cn2C)cn1C`, the TGI in the test with A498 renal is 78.5 µM; in the test with A549 NSCLC it was greater than 100 µM; in the test on K-562 leukemia it was greater than 100 µM; with MDA-MB-231 breast it was 77.1 µM; in the test with NCI-H23 lung it was 83.5 µM; with SF-268 CNS, greater than 100 µM. Also, the TGI with SK-OV-3 ovarian was greater than 100 µM; in the test on SNB-19 CNS, 85.7 µM.

On to `O=C(Cc1csc2nc(-c3ccc(Cl)cc3)cn12)N/N=C/c1ccccc1O`, for which the GI50 is 8.32 µM in the test with A498 renal; 5.18 µM in the test on A549 NSCLC; 3.42 µM in the test on K-562 leukemia; 13.1 µM with MDA-MB-231 breast; 5.32 µM in the test on NCI-H23 lung; 1.26 µM in the test on SF-268 CNS. The GI50 is 5.05 µM in the test with SK-OV-3 ovarian, 12.3 µM in the test on SNB-19 CNS and 4.74 µM with UACC-257 melanoma. Moreover, the TGI was greater than 100 µM with A498 renal; greater than 100 µM with A549 NSCLC; greater than 100 µM in the test with K-562 leukemia; greater than 100 µM in the test on MDA-MB-231 breast; greater than 100 µM with NCI-H23 lung; 54.8 µM in the test with SF-268 CNS. Also, the total growth inhibition concentration (TGI) with SK-OV-3 ovarian, in the test with SNB-19 CNS and with UACC-257 melanoma was greater than 100 µM each time.

On to `Cn1c2[n+](c3nc(N)[nH]c(=O)c31)C1OC(C2)C(O)C1O` (stereo unspecified), for which the TGI in the test on A498 renal, with A549 NSCLC, with K-562 leukemia, in the test with NCI-H23 lung, in the test on NCI-H522 lung and in the test on SF-268 CNS was greater than 100 µM throughout. Moreover, the TGI with SK-OV-3 ovarian, in the test on SNB-19 CNS and in the test on UACC-257 melanoma was greater than 100 µM throughout.

`COc1cccc(/C=N/[N-]C(N)=O)c1[O-].[Ni+2].[OH3+]`: the TGI with A498 renal came out at 3.15 µM; with A549 NSCLC, 2.27 µM; in the test with K-562 leukemia it was 2.31 µM; with NCI-H23 lung it was 0.735 µM; in the test with NCI-H522 lung, 0.25 µM; in the test on SF-268 CNS it was 0.945 µM. In addition, the concentration for total growth inhibition (TGI) with SK-OV-3 ovarian amounted to 1.69 µM; in the test with SNB-19 CNS, 1.99 µM; in the test with UACC-257 melanoma, 1.52 µM.

Consider `CS(C)(=O)=Nn1c(=O)n2n(c1=O)C1c3ccccc3C2c2ccccc21`, for which the TGI in the test on A498 renal, in the test with A549 NSCLC, in the test on K-562 leukemia, in the test with MDA-MB-231 breast, in the test on NCI-H23 lung and in the test with NCI-H522 lung was greater than 100 µM in each case. In addition, the TGI with SK-OV-3 ovarian, in the test on SNB-19 CNS and with UACC-257 melanoma was greater than 100 µM each time.

Regarding `CC(C)CC1c2[nH]c3ccccc3c2C[C@H]2C(=O)NC(CCCCNC(=O)OC(C)(C)C)C(=O)N12` (stereo partly specified), the TGI is greater than 100 µM with A498 renal; greater than 100 µM with A549 NSCLC; greater than 100 µM in the test with K-562 leukemia; 51.1 µM in the test with MDA-MB-231 breast; greater than 100 µM with NCI-H23 lung; 72.3 µM in the test with NCI-H522 lung. Moreover, the TGI with SF-268 CNS, with SNB-19 CNS and in the test with UACC-257 melanoma was greater than 100 µM each time.

With `CC1(C(=O)O)C[C@](C)(C(=O)OCc2ccccc2)C[C@](C)(C(=O)OCc2ccccc2)C1` (stereo partly specified), the TGI with A549 NSCLC is greater than 100 µM; in the test with K-562 leukemia it was greater than 100 µM; in the test with NCI-H23 lung it was 56.6 µM; in the test with NCI-H522 lung, 60 µM; with SF-268 CNS it was greater than 100 µM; with SK-OV-3 ovarian, greater than 100 µM. Also, the TGI in the test on SNB-19 CNS and in the test on UACC-257 melanoma was greater than 100 µM each time.

For `O=C(Nc1ccc(-n2ccc3c(NC(=O)c4ccccc4)nccc32)cc1)Nc1cccc(C(F)(F)F)c1`, the GI50 is 6.39 µM with A498 renal; 3.25 µM in the test on A549 NSCLC; 2.68 µM with K-562 leukemia; 4.65 µM in the test with MDA-MB-231 breast; 3.28 µM with NCI-H23 lung; 1.69 µM in the test on NCI-H522 lung. Also, the results for the GI50 in the test on SF-268 CNS, in the test on SNB-19 CNS and in the test on UACC-257 melanoma were 10.5 µM, 11.1 µM and 11.2 µM, respectively. Moreover, the TGI turned out to be 21 µM in the test on A498 renal; 10.9 µM with A549 NSCLC; 10.5 µM with K-562 leukemia; 18.1 µM in the test on MDA-MB-231 breast; 17.6 µM in the test with NCI-H23 lung; 15.3 µM in the test on NCI-H522 lung. The figures for the concentration for total growth inhibition (TGI) in the test with SF-268 CNS, in the test with SNB-19 CNS and in the test on UACC-257 melanoma were 30.2 µM, 26.8 µM and 26 µM, respectively.

With `O=S(=O)(O)c1ccc2c(N=Nc3ccc(N=Nc4ccccc4)cc3)c(O)c(S(=O)(=O)O)cc2c1`, the total growth inhibition concentration (TGI) in the test with A549 NSCLC, in the test on K-562 leukemia, in the test with MDA-MB-231 breast, with NCI-H23 lung, in the test with NCI-H522 lung and with SF-268 CNS was greater than 100 µM throughout. Further, the TGI in the test on SK-OV-3 ovarian, with SNB-19 CNS and in the test with UACC-257 melanoma was greater than 100 µM throughout.

For the origin of these results see PubChem BioAssay (NCI).
